Values joined by “and” are separate entries in the source; they are usually repeats but may differ in a detail not shown here. Identical values can stand only once. Like-named read-outs stand apart in the source and are kept apart here.
Assays:
[1] = tested on: H-460; test: 3H-TdR incorporation at 72 hr (24 hr drug exposure, wash, 48 hr); type: cell-based, Human
Experimental: (§1) Exposition of 24 hr to drug, wash, incubated for another 48 hr (total of 72 hr assay)
(§2) (3H-Thymidine Incorporation Assay)

[2] = tested on: MCF-7; test: as above; type: cell-based, Human
Experimental: as §1, §2

[3] = tested on: SF-268; test: as above; type: cell-based, Human; conditions: 24 h drug exposure, 72 hr assay
Experimental: as §1, §2

[4] = tested on: CCRF-CEM; test: as above; type: cell-based; conditions: read-out: IC50 in μM (3H-TdR incorporation at 72 hr) CCRF-CEM 24 h, CCRF-CEM T-cell Leukemia, 72 hr assay
Experimental: as §1, §2

[5] = tested on: CEM/dCK-; test: as above; type: cell-based; conditions: for IC50: 24 h drug exposure, 72 hr assay; for Factor* (Resistance Factor = Ratio of dCK- on Wild-type CCRF-CEM): ratio of IC50 CEM/dCK- to IC50 CCRF-CEM
Experimental: as §1, §2

[6] = tested on: H-460; test: 3H-TdR (3H-thymidine) incorporation assay at 72 hr; type: cell-based, Human; conditions: 3H-TdR incorporation at 72 hr
[7] = tested on: CCRF-CEM; test: 3H-TdR (3H-thymidine) incorporation assay at 72 hr; type: cell-based; conditions: 3H-TdR incorporation at 72 hr
Experimental: (§3) Table of IC50 Values (μM) for Controls
as §1, §2

[8] = tested on: CEM/dCK-; test: 3H-TdR (3H-thymidine) incorporation assay at 72 hr; type: cell-based; conditions: Homo sapiens, CCRF-CEM, read-out: IC50 CEM/dCK- 24 h, 24 h drug exposure, wash, another 48 hr; deoxycytidine kinase-deficient CCRF-CEM
Experimental: as §3, §1, §2

[9] = Homo sapiens, NCI-H460, read-out: IC50 in μM (3H-TdR incorporation at 72 hr) H-460 24 h, H-460 Human Lung Carcinoma, 72 hr assay
[10] = Homo sapiens, MCF7, read-out: IC50 in μM (3H-TdR incorporation at 72 hr) MCF-7 24 h, MCF-7 Human Breast Carcinoma, 72 hr assay
[11] = Homo sapiens, SF-268, read-out: IC50 in μM (3H-TdR incorporation at 72 hr) SF-268 24 h, SF-268 Human Central Nervous System Tumor
[12] = Homo sapiens, CCRF-CEM, read-out: IC50 in μM (3H-TdR incorporation at 72 hr) CEM/dCK- 24 h, CCRF-CEM deoxycytidine kinase-deficient
[13] = read-out: IC50 in μM (3H-TdR incorporation at 72 hr) MCF-7 24 h, MCF-7 Human Breast Carcinoma, 72 hr assay
[14] = read-out: IC50 in μM (3H-TdR incorporation at 72 hr) SF-268 24 h, SF-268 Human Central Nervous System Tumor
[15] = read-out: IC50 in μM (3H-TdR incorporation at 72 hr) CEM/dCK- 24 h, CCRF-CEM deoxycytidine kinase-deficient

Compound	IC50 [1, 9] [µM]	IC50 [2, 10] [µM]	IC50 [3, 11] [µM]	IC50 ([4]; Homo sapiens, CCRF-CEM) [µM]	IC50 [5, 12] [µM]	Factor* (Resistance Factor = Ratio of dCK- on Wild-type CCRF-CEM) [5]	IC50 ([6]; Homo sapiens, NCI-H460, read-out: IC50 H-460 24 h, 24 h drug exposure, wash, another 48 hr) [µM]	IC50 ([6]; read-out: IC50 H-460 24 h, 24 h drug exposure, wash, another 48 hr) [µM]	IC50 [2, 13]	IC50 [3, 14]	IC50 ([7]; Homo sapiens, CCRF-CEM, read-out: IC50 CCRF-CEM 24 h, 24 h drug exposure, wash, another 48 hr) [µM]	IC50 ([7]; read-out: IC50 CCRF-CEM 24 h, 24 h drug exposure, wash, another 48 hr) [µM]	IC50 [8] [µM]	IC50 [4] [µM]	IC50 ([1]; read-out: IC50 in μM (3H-TdR incorporation at 72 hr) H-460 24 h, H-460 Human Lung Carcinoma, 72 hr assay) [µM]	IC50 [5, 15] [µM]
CCCCN(/C=N/c1ccn([C@@H]2CO[C@H](CO)O2)c(=O)n1)CCCC (stereo in doubt) [Compound 221, N,N-Dibutyl-N′-[1-(2-hydroxymethyl [1,3]dioxolan-4-yl)-2-oxo-1,2-dihydro-pyrimidin-4-yl]-formamidine]	0.43	0.39	1.6	0.13	> 100	>769	–	–	–	–	–	–	–	–	–	–
CN(C)/C=N/c1ccn([C@@H]2CO[C@H](CO)O2)c(=O)n1 (stereo in doubt) [Compound 222, N′-[1-(2-HYDROXYMETHYL- [1,3]DIOXOLAN-4-YL)-2- OXO-1,2-DIHYDRO- PYRIMIDIN-4-YL]-N,N- DIMETHYL-FORMAMIDINE]	0.21	0.19	0.85	0.11	> 100	>909	–	–	–	–	–	–	–	–	–	–
O=C(Nc1ccn([C@@H]2CO[C@H](CO)O2)c(=O)n1)C12C[C@@H]3C[C@@H](C[C@@H]1C3)C2 (stereo in doubt) [Compound 231, Hexahydro-2,5-Methano-Pentalene-3A-Carboxylic Acid [1-(2-Hydroxymethyl-[1,3]Dioxolan-4-Yl)-2-Oxo-1,2-Dihydro-Pyrimidin-4-Yl]-Amide]	–	–	1.1	0.076	> 100	–	–	–	–	–	–	–	–	–	–	–
O=c1nc(/N=C2/CCCN2Cc2ccccc2)ccn1[C@@H]1CO[C@H](CO)O1 (stereo in doubt) [Compound 236, 4-(1-BENZYL-PYRROLIDIN- 2-YLIDENEAMINO)-1-(2- HYDROXYMETHYL- [1,3]DIOXOLAN-4-YL)-1H- PYRIMIDIN-2-ONE]	3.7	8.6	0.12	5.1	> 100	>20	–	–	–	–	–	–	–	–	–	–
Cc1cccc(C)c1C(=O)OC[C@H]1OC[C@@H](n2ccc(N)nc2=O)O1 [Compound 162, 1-[2-(2,6-DIMETHYL- BENZOYLOXYMETHYL)- [1,3]DIOXOLAN-4-YL]-2- OXO-1,2-DIHYDRO PYRIMIDIN-4-YL- AMMONIUM; CHLORIDE]	–	5.7	12	3.3	> 100	–	8.4	6.4	3.6 µM	17 µM	2.2	2.8	> 100	4.1	–	–
Nc1ccn([C@@H]2CO[C@H](COC(=O)c3ccccc3)O2)c(=O)n1 [Compound 163, BENZOIC ACID 4-(4- AMINO-2-OXO-2H- PYRIMIDIN-1-YL)- [1,3]DIOXOLAN-2- YLMETHYL ESTER]	0.0092	0.033	0.025	0.0033	27	8,182	–	–	–	–	–	–	–	–	–	–
CN(C)CCCOC(=O)OC[C@H]1OC[C@@H](n2ccc(N)nc2=O)O1.O=C(O)C(F)(F)F [Compound 164, CARBONIC ACID 4-(4- AMINO-2-OXO-2H- PYRIMIDIN-1-YL)- [1,3]DIOXOLAN-2- YLMETHYL ESTER 3- DIMETHYLAMINO-PROPYL ESTER TRIFLUORO-ACETIC ACID SALT]	0.13	0.14	0.28	0.06	> 100	1667	–	–	–	–	–	–	–	–	–	–
O=C(NCNc1ccn([C@@H]2CO[C@H](CO)O2)c(=O)n1)c1ccccc1 [Compound 165, N-{[1-(2-HYDROXYMETHYL- [1,3]DIOXOLAN-4-YL)-2- OXO-1,2-DIHYDRO- PYRIMIDIN-4-YLAMINO]- METHYL}-BENZAMIDE]	3.4	10	16	1.8	> 100	>56	–	–	–	–	–	–	–	–	–	–
CN(C)CCCCOC(=O)Nc1ccn([C@@H]2CO[C@H](CO)O2)c(=O)n1.O=C(O)C(F)(F)F [Compound 169, [1-(2-HYDROXYMETHYL- [1,3]DIOXOLAN-4-YL)-2- OXO-1,2-DIHYDRO- PYRIMIDIN-4-YL]- CARBAMIC ACID 4- DIMETHYLAMINO-BUTYL ESTER TRIFLUOROACETIC ACID SALT]	8.2	5.1	7.1	2	> 100	>50	–	–	–	–	–	–	–	–	–	–
C#CCN(CC#C)c1ccn([C@@H]2CO[C@H](CO)O2)c(=O)n1 [Compound 171, (S,S) 4-(DI-PROP-2′- YNYL-AMINO)-1-(2″- HYDROXYMETHYL- [1,3]DIOXOLAN-4″-YL)- 1H-PYRIMIDIN-2-ONE]	45	41	82	38	> 100	>2.6	–	–	–	–	–	–	–	–	–	–
C#CCOC[C@H]1OC[C@@H](n2ccc(N)nc2=O)O1 [Compound 173, (S,S)-4-AMINO-1-(2′- PROP-2′-YNYLOXYMETHYL- [1,3]DIOXOLAN-4′-YL)- 1H-PYRIMIDIN-2-ONE]	6.1	17	2	2.6	> 100	>38	–	–	–	–	–	–	–	–	–	–
COc1ccc(C(=O)Nc2ccn([C@@H]3CO[C@H](COC(=O)c4ccc(OC)cc4)O3)c(=O)n2)cc1 [Compound 174, 4-METHOXY-BENZOIC ACID 4-[4-(4-METHOXY- BENZOYLAMINO)-2-OXO-2H- PYRIMIDIN-1-YL]- [1,3]DIOXOLAN-2- YLMETHYL ESTER]	11	21	38	9	> 100	>11	–	–	–	–	–	–	–	–	–	–
COc1ccc(C(=O)OC[C@H]2OC[C@@H](n3ccc(N)nc3=O)O2)cc1 [Compound 176, 4-METHOXY-BENZOIC ACID 4-(4-AMINO-2-OXO-2H- PYRIMIDIN-1-YL)- [1,3]DIOXOLAN-2- YLMETHYL ESTER]	0.04	–	0.057	0.014	38	–	–	–	–	0.032 µM	–	–	–	0.011	0.043	68
CCCCCCc1ccc(C(=O)OC[C@H]2OC[C@@H](n3ccc(N)nc3=O)O2)cc1 [Compound 191, 4-HEXYL-BENZOIC ACID 4- (4-AMINO-2-OXO-2H- PYRIMIDIN-1-YL)- [1,3]DIOXOLAN-2-YL METHYL ESTER]	< 0.0001	< 0.0001	< 0.0001	< 0.0001	–	–	–	–	–	–	–	–	–	–	–	–
O=C(CCCCCCCc1ccccc1)Nc1ccn([C@@H]2CO[C@H](CO)O2)c(=O)n1 [Compound 197, 8-PHENYL-OCTANOIC ACID [1-(2-HYDROXYMETHYL- [1,3]DIOXOLAN-4-YL)-2- OXO-1,2-DIHYDRO- PYRIMIDIN-4-YL]-AMIDE]	< 0.0001	< 0.0001	< 0.0001	< 0.0001	–	–	–	–	–	–	–	–	–	–	–	–
Nc1ccn([C@@H]2CO[C@H](COC(=O)CCCCCCCc3ccccc3)O2)c(=O)n1 [Compound 198, 8-PHENYL-OCTANOIC ACID 4-(4-AMINO-2-OXO-2H- PYRIMIDIN-1-YL)- [1,3]DIOXOLAN-2-YL METHYL ESTER]	< 0.0001	–	< 0.0001	< 0.0001	–	–	–	–	–	–	–	–	–	–	–	–
CCC(CC)(CCCCCCc1ccccc1)C(=O)OC[C@H]1OC[C@@H](n2ccc(N)nc2=O)O1 [Compound 233, 2,2-DIETHYL-8-PHENYL- OCTANOIC ACID 4-(4- AMINO-2-OXO-2H- PYRIMIDIN-1-YL)- [1,3]DIOXOLAN-2-YL METHYL ESTER]	–	13	12	11	18	–	–	–	9.6 µM and 11 µM	17 µM and 15 µM	–	–	–	9.7	–	22

— patent publication US20030013660A1, “Dioxolane analogs for improved inter-cellular delivery” (Shire BioChem Inc., priority 2000, published 2003)
